Source: patent US20250282768A1 (Janssen Pharmaceutica NV, priority 2022, published 2025)

Tested on: p-IKKa levels in L363 (NIK translocated multiple myeloma) cells
Experiment: Assay 2: Effect of compounds on p-IKKa levels in L363 (NIK translocated multiple myeloma) cells
Type: cell-based
Conditions: Homo sapiens, L-363, 6 h, read-out: Assay 2 IC50 (nM), p-IKKa (Ser 176/180) in BAFF stimulated L363 cells with MG132, 6 h; average if tested more than once
Summary of the method: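 L363 cells incubated overnight ± 250 ng/ml BAFF, then 6 h at 37 °C with compound (0.3% DMSO) ± 10 μM MG132. Lysates assayed for p-IKKa (Ser176/180) by AlphaLISA SureFire. IC50 from sigmoidal fit of % inhibition normalized to BAFF/MG132-stimulated and unstimulated controls.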

SMILES	IC50
Cc1ccncc1Nc1nccc(-c2cccc(-c3cc([C@]4(O)CCN(C)C4=O)on3)n2)n1 [Example 333, (R)-3-Hydroxy-1-methyl-3-(3-(6-(2-((4-methylpyridin-3-yl)amino)pyrimidin-4-yl)pyridin-2-yl)isoxazol-5-yl)pyrrolidin-2-one]	50 to 500 nM
CN1CC[C@@](O)(c2cc(-c3cccc(-c4ccnc(Nc5ccncc5F)n4)n3)no2)C1=O [Example 330, (R)-3-(3-(6-(2-((3-Fluoropyridin-4-yl)amino)pyrimidin-4-yl)pyridin-2-yl)isoxazol-5-yl)-3-hydroxy-1-methylpyrrolidin-2-one]	< 50 nM
CN1CC[C@@](O)(c2cc(-c3cccc(-c4ccnc(Nc5cncc(F)c5)n4)n3)no2)C1=O [Example 86, (R)-3-(3-(6-(2-((5-Fluoropyridin-3-yl)amino)pyrimidin-4-yl)pyridin-2-yl)isoxazol-5-yl)-3-hydroxy-1-methylpyrrolidin-2-one]	< 50 nM
CN1CC(F)(F)[C@@](O)(c2cc(-c3cccc(-c4ccnc(Nc5cnn(C)c5Cl)n4)n3)no2)C1=O [Example 409]	< 50 nM
CN1CC[C@@](O)(c2cc(-c3cccc(-c4ccnc(Nc5cn(CC(F)F)nc5OC5CC5)n4)n3)no2)C1=O [Example 28, (R)-3-(3-(6-(2-((3-Cyclopropoxy-1-(2,2-difluoroethyl)-1H-pyrazol-4-yl)amino)pyrimidin-4-yl)pyridin-2-yl)isoxazol-5-yl)-3-hydroxy-1-methylpyrrolidin-2-one]	< 50 nM
CN1CC[C@@](O)(c2cc(-c3cccc(-c4ccnc(N[C@@H]5CCOC5)n4)c3)no2)C1=O [Example 12, (R)-3-Hydroxy-1-methyl-3-(3-(3-(2-(((R)-tetrahydrofuran-3-yl)amino)pyrimidin-4-yl)phenyl)isoxazol-5-yl)pyrrolidin-2-one]	> 500 nM
Cc1ncc(Nc2nccc(-c3cccc(-c4cc([C@]5(O)CCN(C)C5=O)on4)n3)n2)cn1 [Example 291, (R)-3-Hydroxy-1-methyl-3-(3-(6-(2-((2-methylpyrimidin-5-yl)amino)pyrimidin-4-yl)pyridin-2-yl)isoxazol-5-yl)pyrrolidin-2-one]	50 to 500 nM
CO[C@H](CNc1nccc(-c2cccc(-c3cc([C@]4(O)CCN(C)C4=O)on3)n2)n1)C(F)(F)F (single isomer, unassigned) [Example 462, (R)-3-Hydroxy-1-methyl-3-(3-(6-(2-(((*R)-3,3,3-trifluoro-2-methoxypropyl)amino)pyrimidin-4-yl)pyridin-2-yl)isoxazol-5-yl)pyrrolidin-2-one]	50 to 500 nM
Cc1cc([C@@H](C)Nc2nccc(-c3cccc(-c4cc([C@]5(O)CCN(C)C5=O)on4)n3)n2)no1 [Example 380, (R)-3-Hydroxy-1-methyl-3-(3-(6-(2-(((R)-1-(5-methylisoxazol-3-yl)ethyl)amino)pyrimidin-4-yl)pyridin-2-yl)isoxazol-5-yl)pyrrolidin-2-one]	50 to 500 nM
Cc1c(Nc2nccc(-c3cccc(-c4cc([C@]5(O)CCN(C)C5=O)on4)n3)n2)cnn1C(F)F [Example 227, (R)-3-(3-(6-(2-((1-(Difluoromethyl)-5-methyl-1H-pyrazol-4-yl)amino)pyrimidin-4-yl)pyridin-2-yl)isoxazol-5-yl)-3-hydroxy-1-methylpyrrolidin-2-one]	< 50 nM
CN1CC[C@@](O)(c2cc(-c3cccc(-c4ccnc(Nc5cn(C)nc5Cl)n4)n3)no2)C1=O [Example 296, (R)-3-(3-(6-(2-((3-Chloro-1-methyl-1H-pyrazol-4-yl)amino)pyrimidin-4-yl)pyridin-2-yl)isoxazol-5-yl)-3-hydroxy-1-methylpyrrolidin-2-one]	< 50 nM
CN1CC[C@](O)(c2csc(-c3cccc(-c4ccnc(Nc5ccn(C)n5)n4)n3)n2)C1=O (single isomer, unassigned) [Example 80]	> 500 nM
CN1CC[C@@](O)(c2cc(-c3cccc(-c4ccnc(NCCC(F)F)n4)n3)no2)C1=O [Example 359, (R)-3-(3-(6-(2-((3,3-Difluoropropyl)amino)pyrimidin-4-yl)pyridin-2-yl)isoxazol-5-yl)-3-hydroxy-1-methylpyrrolidin-2-one]	50 to 500 nM
C[C@H](Nc1nccc(-c2cccc(-c3cc([C@]4(O)CCN(C)C4=O)on3)n2)n1)C(=O)N1CCC1 [Example 168, (R)-3-(3-(6-(2-(((S)-1-(Azetidin-1-yl)-1-oxopropan-2-yl)amino)pyrimidin-4-yl)pyridin-2-yl)isoxazol-5-yl)-3-hydroxy-1-methylpyrrolidin-2-one]	50 to 500 nM
CCn1ccc(Nc2nccc(-c3cccc(-c4cc([C@]5(O)CCN(C)C5=O)no4)n3)n2)n1 [Example 237, (R)-3-(5-(6-(2-((1-Ethyl-1H-pyrazol-3-yl)amino)pyrimidin-4-yl)pyridin-2-yl)isoxazol-3-yl)-3-hydroxy-1-methylpyrrolidin-2-one]	< 50 nM
CN1CC[C@@](O)(c2cc(-c3cccc(-c4cc(Cl)nc(Nc5ccn(C)n5)n4)n3)no2)C1=O [Example 101, (R)-3-(3-(6-(6-Chloro-2-((1-methyl-1H-pyrazol-3-yl)amino)pyrimidin-4-yl)pyridin-2-yl)isoxazol-5-yl)-3-hydroxy-1-methylpyrrolidin-2-one]	> 500 nM
CN1CC[C@@](O)(c2cc(-c3cccc(-c4ccnc(Nc5cnn(C)c5)n4)n3)no2)C1=O [Example 52, (R)-3-Hydroxy-1-methyl-3-(3-(6-(2-((1-methyl-1H-pyrazol-4-yl)amino)pyrimidin-4-yl)pyridin-2-yl)isoxazol-5-yl)pyrrolidin-2-one]	< 50 nM
COc1cn(C)nc1Nc1nccc(-c2cccc(-c3cc([C@]4(O)CCN(C)C4=O)on3)c2)n1 [Example 16, (R)-3-Hydroxy-3-(3-(3-(2-((4-methoxy-1-methyl-1H-pyrazol-3-yl)amino)pyrimidin-4-yl)phenyl)isoxazol-5-yl)-1-methylpyrrolidin-2-one]	> 500 nM
C[C@@H](Nc1nccc(-c2cccc(-c3cc([C@]4(O)CCN(C)C4=O)on3)n2)n1)c1cnn(C)c1 (single isomer, unassigned) [Example 69]	< 50 nM
CN1CC[C@@](O)(c2cc(-c3cccc(-c4ccnc(NC(c5cnn(C)c5)C(F)(F)F)n4)n3)no2)C1=O (mixture of isomers) [Example 96, (R)-3-Hydroxy-1-methyl-3-(3-(6-(2-(((RS)-2,2,2-trifluoro-1-(1-methyl-1H-pyrazol-4-yl)ethyl)amino)pyrimidin-4-yl)pyridin-2-yl)isoxazol-5-yl)pyrrolidin-2-one]	50 to 500 nM
C[C@H](F)CCNc1nccc(-c2cccc(-c3cc([C@]4(O)CCN(C)C4=O)on3)n2)n1 [Example 344, (R)-3-(3-(6-(2-(((S)-3-Fluorobutyl)amino)pyrimidin-4-yl)pyridin-2-yl)isoxazol-5-yl)-3-hydroxy-1-methylpyrrolidin-2-one]	50 to 500 nM
CN1CC[C@@](O)(c2cc(-c3cccc(-c4ccnc(Nc5ccc(F)cn5)n4)n3)no2)C1=O [Example 254, (R)-3-(3-(6-(2-((5-Fluoropyridin-2-yl)amino)pyrimidin-4-yl)pyridin-2-yl)isoxazol-5-yl)-3-hydroxy-1-methylpyrrolidin-2-one]	50 to 500 nM
[2H]c1cc(-c2cccc(-n3cc([C@]4(O)CCN(C)C4=O)nn3)n2)nc(Nc2ccn(CC)n2)n1 [Example 301, (R)-3-(1-(6-(2-((1-Ethyl-1H-pyrazol-3-yl)amino)pyrimidin-4-yl-6-d)pyridin-2-yl)-1H-1,2,3-triazol-4-yl)-3-hydroxy-1-methylpyrrolidin-2-one]	< 50 nM
CN1CC[C@@](O)(c2cc(-c3cccc(-c4ccnc(N[C@@H]5COC[C@H]5F)n4)n3)no2)C1=O [Example 342, (R)-3-(3-(6-(2-(((trans)-4-Fluorotetrahydrofuran-3-yl)amino)pyrimidin-4-yl)pyridin-2-yl)isoxazol-5-yl)-3-hydroxy-1-methylpyrrolidin-2-one]	50 to 500 nM
CN1CC[C@@](O)(c2cc(-c3cccc(-c4ccnc(Nc5cncc(C#N)c5)n4)n3)no2)C1=O [Example 292, (R)-5-((4-(6-(5-(3-Hydroxy-1-methyl-2-oxopyrrolidin-3-yl)isoxazol-3-yl)pyridin-2-yl)pyrimidin-2-yl)amino)nicotinonitrile]	< 50 nM
CN1CC[C@@](O)(c2cc(-c3cccc(-c4ccnc(Nc5ccnn5C)n4)n3)no2)C1=O [Example 26, (R)-3-Hydroxy-1-methyl-3-(3-(6-(2-((1-methyl-1H-pyrazol-5-yl)amino)pyrimidin-4-yl)pyridin-2-yl)isoxazol-5-yl)pyrrolidin-2-one]	< 50 nM
CN1CC[C@@](O)(c2cc(-c3cccc(-c4ccnc(Nc5ncc(CO)cn5)n4)n3)no2)C1=O [Example 316, (R)-3-Hydroxy-3-(3-(6-(2-((5-(hydroxymethyl)pyrimidin-2-yl)amino)pyrimidin-4-yl)pyridin-2-yl)isoxazol-5-yl)-1-methylpyrrolidin-2-one]	> 500 nM
CN1CC[C@@](O)(c2cc(-c3cccc(-c4ccnc(Nc5cnn6ccncc56)n4)n3)no2)C1=O [Example 299, (R)-3-Hydroxy-1-methyl-3-(3-(6-(2-(pyrazolo[1,5-a]pyrazin-3-ylamino)pyrimidin-4-yl)pyridin-2-yl)isoxazol-5-yl)pyrrolidin-2-one]	< 50 nM
CN1CC[C@@](O)(c2cc(-c3cccc(-c4ccnc(Nc5ccnnc5)n4)n3)no2)C1=O [Example 281, (R)-3-Hydroxy-1-methyl-3-(3-(6-(2-(pyridazin-4-ylamino)pyrimidin-4-yl)pyridin-2-yl)isoxazol-5-yl)pyrrolidin-2-one]	> 500 nM
CN1CC[C@@](O)(c2cc(-c3cccc(-c4ccnc(Nc5cnn6c5OCCC6)n4)c3)no2)C1=O [Example 15, (R)-3-(3-(3-(2-((6,7-Dihydro-5H-pyrazolo[5,1-b][1,3]oxazin-3-yl)amino)pyrimidin-4-yl)phenyl)isoxazol-5-yl)-3-hydroxy-1-methylpyrrolidin-2-one]	> 500 nM
